Experiment: Agilent ZORBAX 300 SB-C18, 150 × 1 mm, 3.5 µm; A: water + 0.01% heptafluorobutyric acid; B: acetonitrile + 0.01% heptafluorobutyric acid; gradient (min/%B) 0/0 100/90
Conditions: stereoisomer not certain

Compound | LC retention time [min]
O=C(Cn1cnc2ccccc2c1=O)NN=Cc1cnc2ccccc2n1 | 10.1
NC1CCc2ccccc21 (stereo unspecified) | 7.85
NC(Cc1ccccc1)C(=O)Nc1ccc2ccccc2c1 (stereo unspecified) | 10.4
Cc1ccc(-n2cnnn2)nc1 | 9.44
Cc1ccc(C)n1-c1ccccc1CO | 12.7
O=c1cc(O)c2ccccc2[nH]1 | 8.44
CCNC(=S)N1CCCC(C(N)=O)C1 (stereo unspecified) | 7.41
CC(NCCc1ccc(O)cc1)C(O)c1ccc(O)cc1 (stereo unspecified) | 8.48
NC1CCCCCC1 | 7.85
Cc1cc(C)nc(Nc2n[nH]c(C)n2)n1 | 8.05
CCCCN(C)C(=O)Cn1c(=O)c2c(C)cc(C)nc2n(-c2ccccc2)c1=O | 15
CCc1ccncc1 | 6.94
Cc1ccccc1C=NNC(N)=S | 10.7
O=Cc1ccc[nH]1 | 6.97
CCCCNC | 7.29
O=C(C=Cc1ccccc1)c1cc2ccccc2o1 | 16.7
Cn1c(=O)[nH]cc(CC(=O)O)c1=O | 5.4
S=C(NCc1ccccc1)NCc1ccc2[nH]c3c(c2c1)CCCC3 | 15.4
O=C(C=Cc1cccc(O)c1)c1ccccc1O | 12.2
C=CC1CN2CCC1CC2C(O)c1ccnc2ccccc12 (stereo unspecified) | 8.84
CC(C)c1cc[nH]c1-c1ccccc1 | 16.3
CC(N)=O | 1.61

Compound | LC retention time [min]
CNCCOC | 4.63
COc1ccc(N2CC(C(=O)Nc3c(C)cc(C)cc3C)CC2=O)cc1 (stereo unspecified) | 12.5
CC(=O)NCCOc1ccc(C)cc1 | 10.4
Nc1cccnc1N | 6.18
N=c1c2c3c(sc2ncn1N)CCC3 | 8.21
O=C1NN=C(c2ccccc2)CC1c1c[nH]c2ccccc12 (stereo unspecified) | 12.3
CC(=O)c1c(C(C)=O)c(C)n(CCc2c[nH]c3ccccc23)c1C | 12.5
COc1ccc(OC)c(NC(=O)Cn2c(=O)n(C)c(=O)n(C)c2=O)c1 | 10.7
O=C1CCCN1c1ccc(O)cc1 | 7.71
COC(=O)Nc1nc2ccc(Sc3ccccc3)cc2[nH]1 | 12.2
Cc1ccc(-c2cc3ccccc3[nH]2)c(C)c1 | 17.6
Cc1cccc[n+]1CC(=O)c1ccccc1 | 8.36
NC(=O)NCc1ccccn1 | 3.95
COC(=O)Cn1ncccc1=O | 6.64
OC12CC(Cc3cccnc31)c1ccccc12 (stereo unspecified) | 8.39
O=C(CNc1cccc2ccccc12)NN=CC=Cc1ccccc1 | 15.5
Nc1cc(=O)[nH]c(=S)n1C1CCCC1 | 8.94
COc1ccc(N2C(=O)CC(C3CCCO3)C2=O)cc1 (stereo unspecified) | 10.7
CC(=O)Nc1coc2ccccc12 | 10.4
CCCCCCCCCCn1c(CCC)nc2ccccc21 | 15.6
CC(C)(C(=O)O)c1ccc(C(O)CCCN2CCC(C(O)(c3ccccc3)c3ccccc3)CC2)cc1 (stereo unspecified) | 11.5
CC1=NCC(=O)N1c1cccc(N)c1 | 7.1

Compound | LC retention time [min]
NC1C(O)OC(CO)C(O)C1O (stereo unspecified) | 2.77
Cc1cc(=O)cc(C)n1C | 6.83
Nc1cccc(C2OCCCO2)c1 | 7.87
Cc1cccc(C)c1NC(=S)NCC(C)NC(=S)Nc1c(C)cccc1C (stereo unspecified) | 13.9
O=C1c2ccccc2-c2nc3ccccc3cc21 | 14.2
O=S(=O)(O)CCNC1CCCCC1 | 5.78
C1=Nc2ccccc2C(c2ccccc2)C1c1ccc2ccccc2n1 (stereo unspecified) | 11.8
COC(=O)c1[nH]c2ccccc2c1C(=O)OC | 11.3
O=c1nc(N2CCOCC2)nc(N(c2ccccc2)c2ccccc2)[nH]1 | 10.5
c1cc2c(cc1NC1=NCCCCC1)OCCO2 | 9.12
CC[N+](CC)(CC)CCOc1cccc(OCC[N+](CC)(CC)CC)c1OCC[N+](CC)(CC)CC | 8.44
CC(=NNC(=O)CNC(=O)c1ccco1)c1ccc(C(C)(C)C)cc1 | 13.9
COC(=O)CCC1CCCNC1 (stereo unspecified) | 7.49
COc1ccc(N)c(C)c1C | 8.59
CCN(CC)C(=O)c1ccc(O)c(OC)c1 | 9.39
O=C(O)c1c(-c2ccccc2)c(-c2ccccc2)n[nH]c1=O | 9.72
CCCCCCCCCCCCNC | 13.5
CC1=NN(c2ccc(C)cc2)C(=O)C1C=O (stereo unspecified) | 8.94
CC(N)Cc1ccc2oc3ccccc3c2c1 (stereo unspecified) | 10.1
CCCCCCCCCN(C)C | 11.1
Nc1ccc(-c2cccs2)cc1 | 10.5
CC(C)c1ccc(C=C2Nc3ccccc3C2=O)cc1 | 16.9

Reference: the RepoRT retention time repository
